# ChEMBL document CHEMBL5291721, “A preclinical secondary pharmacology resource illuminates target-adverse drug reaction associations of marketed drugs” (Nat Commun, 2023)
# Tests used:
# D(1A) dopamine receptor [1] = biological target: T1, D(1A) dopamine receptor (Homo sapiens, UniProt P21728)
# [2] = biological target: T2, Endothelin receptor type B (Homo sapiens, UniProt P24530)
# T2 sequence (P24530 whole entry): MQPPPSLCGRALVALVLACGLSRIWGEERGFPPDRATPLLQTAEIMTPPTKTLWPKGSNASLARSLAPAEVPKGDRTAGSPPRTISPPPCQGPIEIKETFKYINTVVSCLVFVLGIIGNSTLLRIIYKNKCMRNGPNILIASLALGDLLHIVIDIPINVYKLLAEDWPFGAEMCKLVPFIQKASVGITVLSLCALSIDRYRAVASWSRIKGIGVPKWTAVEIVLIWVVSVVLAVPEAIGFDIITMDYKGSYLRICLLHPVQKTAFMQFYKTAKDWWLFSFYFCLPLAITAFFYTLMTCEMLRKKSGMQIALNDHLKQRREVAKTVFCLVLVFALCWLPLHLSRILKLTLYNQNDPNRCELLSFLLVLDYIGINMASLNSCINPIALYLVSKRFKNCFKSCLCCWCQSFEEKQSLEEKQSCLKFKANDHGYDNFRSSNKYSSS
# D(1A) dopamine receptor [3] = biological target: T1, D(1A) dopamine receptor; remark: listed apart in the source
# B1 bradykinin receptor = biological target: T3, B1 bradykinin receptor (Homo sapiens, UniProt P46663)
# T3 sequence (P46663 whole entry): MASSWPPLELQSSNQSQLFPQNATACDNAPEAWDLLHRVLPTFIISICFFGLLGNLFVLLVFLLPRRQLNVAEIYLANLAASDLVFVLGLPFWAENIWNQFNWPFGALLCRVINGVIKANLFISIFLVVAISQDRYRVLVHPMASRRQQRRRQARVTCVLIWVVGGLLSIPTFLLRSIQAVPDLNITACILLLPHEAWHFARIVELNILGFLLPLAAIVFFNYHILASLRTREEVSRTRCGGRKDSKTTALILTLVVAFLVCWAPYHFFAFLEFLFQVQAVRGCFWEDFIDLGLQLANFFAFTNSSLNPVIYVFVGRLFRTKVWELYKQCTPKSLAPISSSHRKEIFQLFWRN
# Progesterone receptor = biological target: T4, Progesterone receptor (Homo sapiens, UniProt P06401)
# T4 sequence (P06401 whole entry): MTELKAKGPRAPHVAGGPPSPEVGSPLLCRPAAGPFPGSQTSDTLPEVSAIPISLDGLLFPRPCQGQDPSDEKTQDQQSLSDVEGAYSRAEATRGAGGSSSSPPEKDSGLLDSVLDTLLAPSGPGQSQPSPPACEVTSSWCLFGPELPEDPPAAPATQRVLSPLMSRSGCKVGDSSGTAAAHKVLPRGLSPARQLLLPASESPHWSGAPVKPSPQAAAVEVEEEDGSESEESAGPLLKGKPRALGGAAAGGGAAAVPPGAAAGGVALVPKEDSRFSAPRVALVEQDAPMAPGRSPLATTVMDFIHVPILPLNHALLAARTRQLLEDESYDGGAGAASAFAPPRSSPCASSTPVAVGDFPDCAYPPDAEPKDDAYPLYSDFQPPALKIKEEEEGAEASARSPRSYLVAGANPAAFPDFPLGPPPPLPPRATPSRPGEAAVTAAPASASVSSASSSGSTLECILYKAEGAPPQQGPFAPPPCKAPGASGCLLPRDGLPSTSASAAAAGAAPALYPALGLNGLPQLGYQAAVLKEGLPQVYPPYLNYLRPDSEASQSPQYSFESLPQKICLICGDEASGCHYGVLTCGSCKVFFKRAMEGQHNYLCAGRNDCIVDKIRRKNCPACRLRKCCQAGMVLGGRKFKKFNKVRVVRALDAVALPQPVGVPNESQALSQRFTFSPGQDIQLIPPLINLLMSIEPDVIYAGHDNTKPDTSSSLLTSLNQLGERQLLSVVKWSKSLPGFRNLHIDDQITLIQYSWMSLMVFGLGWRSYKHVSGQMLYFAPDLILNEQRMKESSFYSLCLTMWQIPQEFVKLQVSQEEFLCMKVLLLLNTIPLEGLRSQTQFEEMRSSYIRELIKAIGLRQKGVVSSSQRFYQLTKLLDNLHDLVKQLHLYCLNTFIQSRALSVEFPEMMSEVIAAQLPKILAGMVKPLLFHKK
# Substance-P receptor = Substance-P receptor (Homo sapiens, UniProt P25103)
# Chain of Substance-P receptor (P25103 whole entry): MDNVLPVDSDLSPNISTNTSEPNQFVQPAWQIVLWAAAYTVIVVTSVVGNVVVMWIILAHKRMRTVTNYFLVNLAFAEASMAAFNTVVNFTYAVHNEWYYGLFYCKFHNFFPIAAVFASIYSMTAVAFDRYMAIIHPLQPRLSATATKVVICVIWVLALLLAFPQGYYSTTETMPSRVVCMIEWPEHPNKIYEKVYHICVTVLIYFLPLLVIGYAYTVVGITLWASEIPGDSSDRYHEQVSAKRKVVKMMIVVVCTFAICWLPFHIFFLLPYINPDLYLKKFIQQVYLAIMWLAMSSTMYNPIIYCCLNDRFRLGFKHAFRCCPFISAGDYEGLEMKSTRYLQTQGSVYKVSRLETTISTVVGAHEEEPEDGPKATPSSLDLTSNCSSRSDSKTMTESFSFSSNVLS
# [4] = biological target: T5, Gastric inhibitory polypeptide receptor (Homo sapiens, UniProt P48546)
# T5 sequence (P48546 whole entry): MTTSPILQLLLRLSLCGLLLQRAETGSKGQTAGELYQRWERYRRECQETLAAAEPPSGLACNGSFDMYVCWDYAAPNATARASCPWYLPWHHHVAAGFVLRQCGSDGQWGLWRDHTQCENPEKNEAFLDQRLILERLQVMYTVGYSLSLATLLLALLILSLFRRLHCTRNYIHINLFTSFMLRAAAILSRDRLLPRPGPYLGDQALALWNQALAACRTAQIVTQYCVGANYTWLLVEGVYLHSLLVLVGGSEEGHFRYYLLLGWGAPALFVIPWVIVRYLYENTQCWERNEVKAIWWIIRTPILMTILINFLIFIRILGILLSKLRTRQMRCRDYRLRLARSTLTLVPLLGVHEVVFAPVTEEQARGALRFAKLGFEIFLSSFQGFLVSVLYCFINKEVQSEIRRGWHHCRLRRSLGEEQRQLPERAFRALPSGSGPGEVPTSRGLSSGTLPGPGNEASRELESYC
# [5] = biological target: T6, Corticotropin-releasing factor receptor 2 (Homo sapiens, UniProt Q13324)
# T6 sequence (Q13324 whole entry): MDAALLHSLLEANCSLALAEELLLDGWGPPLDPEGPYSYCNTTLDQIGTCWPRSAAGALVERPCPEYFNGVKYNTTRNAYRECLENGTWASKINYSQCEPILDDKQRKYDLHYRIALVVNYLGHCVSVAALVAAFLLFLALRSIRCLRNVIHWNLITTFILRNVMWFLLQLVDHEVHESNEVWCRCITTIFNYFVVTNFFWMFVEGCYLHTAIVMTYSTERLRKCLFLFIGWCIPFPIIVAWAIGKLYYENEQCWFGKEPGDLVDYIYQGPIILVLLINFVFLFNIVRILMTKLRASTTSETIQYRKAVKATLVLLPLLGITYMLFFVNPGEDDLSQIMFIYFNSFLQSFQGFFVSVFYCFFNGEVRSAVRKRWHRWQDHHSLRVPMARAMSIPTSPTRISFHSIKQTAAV
# Glucagon receptor = Glucagon receptor (Homo sapiens, UniProt P47871)
# Chain of Glucagon receptor (P47871 whole entry): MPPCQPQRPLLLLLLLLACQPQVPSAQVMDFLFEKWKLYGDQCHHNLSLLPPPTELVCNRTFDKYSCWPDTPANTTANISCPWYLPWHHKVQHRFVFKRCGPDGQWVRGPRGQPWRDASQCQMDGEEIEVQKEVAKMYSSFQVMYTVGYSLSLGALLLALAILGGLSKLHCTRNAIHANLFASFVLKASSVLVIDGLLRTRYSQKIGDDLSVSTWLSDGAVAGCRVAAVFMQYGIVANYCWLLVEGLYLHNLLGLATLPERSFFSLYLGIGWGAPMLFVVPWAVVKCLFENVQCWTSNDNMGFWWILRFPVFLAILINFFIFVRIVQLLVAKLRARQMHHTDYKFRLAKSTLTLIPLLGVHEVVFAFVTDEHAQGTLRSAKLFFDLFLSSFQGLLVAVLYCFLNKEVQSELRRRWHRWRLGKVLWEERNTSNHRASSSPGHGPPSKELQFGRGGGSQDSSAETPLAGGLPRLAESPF
# Also: assay procedure not described here.
# T1 sequence (P21728 whole entry): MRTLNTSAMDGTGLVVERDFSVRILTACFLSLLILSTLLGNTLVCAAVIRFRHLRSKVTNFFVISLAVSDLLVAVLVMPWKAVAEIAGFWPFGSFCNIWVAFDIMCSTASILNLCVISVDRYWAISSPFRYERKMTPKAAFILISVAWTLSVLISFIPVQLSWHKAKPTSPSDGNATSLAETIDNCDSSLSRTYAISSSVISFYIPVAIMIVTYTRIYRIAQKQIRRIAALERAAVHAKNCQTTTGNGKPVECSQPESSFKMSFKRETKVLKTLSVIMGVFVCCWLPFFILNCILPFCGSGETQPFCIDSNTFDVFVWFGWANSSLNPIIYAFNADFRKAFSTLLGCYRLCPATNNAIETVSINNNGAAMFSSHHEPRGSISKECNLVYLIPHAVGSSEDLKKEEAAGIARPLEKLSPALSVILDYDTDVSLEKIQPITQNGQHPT
smiles,measurement,setting,value
CCCCCCCC(=O)N[C@H](CN1CCCC1)[C@H](O)c1ccc2c(c1)OCCO2,AC50,D(1A) dopamine receptor [1],> 30 µM
C[C@]1(COc2ccc(N3CCC(Oc4ccc(OC(F)(F)F)cc4)CC3)cc2)Cn2cc([N+](=O)[O-])nc2O1,AC50,[2],> 30 µM
same,AC50,D(1A) dopamine receptor [3],> 10 µM
same,AC50,B1 bradykinin receptor,> 30 µM
same,AC50,Progesterone receptor,> 30 µM
same,AC50,Substance-P receptor,> 10 µM
same,AC50,[4],> 30 µM
same,AC50,[5],> 30 µM
same,AC50,Glucagon receptor,> 30 µM
C[C@]12CC[C@H](O)CC1=CC[C@@H]1[C@@H]2CC[C@]2(C)C(c3cccnc3)=CC[C@@H]12 [ABIRATERONE],AC50,Progesterone receptor,> 30 µM
CC(=O)OCC[N+](C)(C)C [ACETYLCHOLINE],AC50,[2],> 30 µM
same,AC50,D(1A) dopamine receptor [3],> 10 µM
same,AC50,B1 bradykinin receptor,> 30 µM
same,AC50,Progesterone receptor,> 30 µM
same,AC50,Substance-P receptor,> 10 µM
same,AC50,[4],> 30 µM
same,AC50,[5],> 30 µM
same,AC50,Glucagon receptor,> 30 µM
O=C(Nc1nc(-c2cc(Cl)cs2)c(N2CCN(C3CCCCC3)CC2)s1)c1cnc(N2CCC(C(=O)O)CC2)c(Cl)c1 [AVATROMBOPAG],AC50,[2],> 10 µM
same,AC50,D(1A) dopamine receptor [3],> 10 µM
same,AC50,B1 bradykinin receptor,> 10 µM
same,AC50,Substance-P receptor,> 10 µM
same,AC50,D(1A) dopamine receptor [1],> 30 µM
C[C@H]1C[C@H]2[C@@H]3CCC4=CC(=O)C=C[C@]4(C)[C@@]3(Cl)[C@@H](O)C[C@]2(C)[C@@]1(O)C(=O)CO [BECLOMETHASONE],AC50,[2],> 30 µM
same,AC50,D(1A) dopamine receptor [3],> 10 µM
same,AC50,B1 bradykinin receptor,> 30 µM
same,AC50,Progesterone receptor,> 30 µM
same,AC50,Substance-P receptor,> 10 µM
same,AC50,[4],> 30 µM
same,AC50,[5],> 30 µM
same,AC50,Glucagon receptor,> 30 µM
CO[C@@]1(NC(=O)CSCC#N)C(=O)N2C(C(=O)O)=C(CSc3nnnn3C)CS[C@@H]21 [CEFMETAZOLE],AC50,D(1A) dopamine receptor [1],> 30 µM
Oc1c(I)cc(Cl)c2cccnc12 [CLIOQUINOL],AC50,D(1A) dopamine receptor [1],> 30 µM
COc1ccc2c(c1)[C@]13CCCC[C@@H]1[C@H](C2)N(C)CC3 [DEXTROMETHORPHAN],AC50,[2],> 30 µM
same,AC50,D(1A) dopamine receptor [3],> 10 µM
same,AC50,B1 bradykinin receptor,> 30 µM
same,AC50,Progesterone receptor,> 30 µM
same,AC50,Substance-P receptor,6.94 µM
same,AC50,[4],> 30 µM
same,AC50,[5],> 30 µM
same,AC50,Glucagon receptor,> 30 µM
CCn1cc(C(=O)O)c(=O)c2cc(F)c(N3CCNCC3)nc21 [ENOXACIN],AC50,[2],> 30 µM
same,AC50,D(1A) dopamine receptor [3],> 10 µM
same,AC50,B1 bradykinin receptor,> 30 µM
same,AC50,Progesterone receptor,> 30 µM
same,AC50,Substance-P receptor,> 10 µM
same,AC50,[4],> 30 µM
same,AC50,[5],> 30 µM
same,AC50,Glucagon receptor,> 30 µM
CCC(=O)O[C@@H]1CC(=O)O[C@H](C)C/C=C/C=C/[C@H](OC(C)=O)[C@H](C)C[C@H](CC=O)[C@H](O[C@@H]2O[C@H](C)[C@@H](O[C@H]3C[C@@](C)(OC(C)=O)[C@@H](OC(=O)CC)[C@H](C)O3)[C@H](N(C)C)[C@H]2O)[C@H]1OC [MIOCAMYCIN],AC50,D(1A) dopamine receptor [1],> 30 µM
C1CNCCN1 [PIPERAZINE],AC50,D(1A) dopamine receptor [1],> 30 µM
COCCCOc1ccnc(C[S+]([O-])c2nc3ccccc3[nH]2)c1C (centres undefined) [RABEPRAZOLE],AC50,[2],> 30 µM
same,AC50,D(1A) dopamine receptor [3],> 10 µM
same,AC50,B1 bradykinin receptor,> 30 µM
same,AC50,Progesterone receptor,> 30 µM
same,AC50,Substance-P receptor,> 10 µM
same,AC50,[4],> 30 µM
same,AC50,[5],> 30 µM
same,AC50,Glucagon receptor,> 30 µM
